Measurements from PMC9820070, “Synthesis, Photochemistry, Computational Study and Potential Application of New Styryl-Thiophene and Naphtho-Thiophene Benzylamines” (International Journal of Molecular Sciences, 2022).

Legend:
[1] = system: TNFα production in human PBMCs; experiment: TNFα production in LPS stimulated PBMCs; format: cell-based; conditions: compound treatment and LPS stimulation
THP-1 cell line = experiment: THP-1 cell viability assay (CellTiter Glo); format: cell-based; conditions: THP-1, 72 h incubation
[2] = target: T1, butyrylcholinesterase from equine serum (Equus caballus, UniProt P81908); experiment: biochemical
[3] = target: T1, butyrylcholinesterase from equine serum; conditions: earlier work; cited from earlier work
[4] = system: TNFα production in human PBMCs; design: method as in PMID 35228009; conditions: earlier work; cited from earlier work
[5] = Acid resistance: pH change of UV spectra and NMR control at pH 1; format: physicochemical; conditions: 1H NMR spectrum recorded at pH 1
[6] = target: acetylcholinesterase from electric eel (Electrophorus electricus, UniProt O42275); experiment: biochemical
acetylcholinesterase from electric eel, sequence (O42275 24-633): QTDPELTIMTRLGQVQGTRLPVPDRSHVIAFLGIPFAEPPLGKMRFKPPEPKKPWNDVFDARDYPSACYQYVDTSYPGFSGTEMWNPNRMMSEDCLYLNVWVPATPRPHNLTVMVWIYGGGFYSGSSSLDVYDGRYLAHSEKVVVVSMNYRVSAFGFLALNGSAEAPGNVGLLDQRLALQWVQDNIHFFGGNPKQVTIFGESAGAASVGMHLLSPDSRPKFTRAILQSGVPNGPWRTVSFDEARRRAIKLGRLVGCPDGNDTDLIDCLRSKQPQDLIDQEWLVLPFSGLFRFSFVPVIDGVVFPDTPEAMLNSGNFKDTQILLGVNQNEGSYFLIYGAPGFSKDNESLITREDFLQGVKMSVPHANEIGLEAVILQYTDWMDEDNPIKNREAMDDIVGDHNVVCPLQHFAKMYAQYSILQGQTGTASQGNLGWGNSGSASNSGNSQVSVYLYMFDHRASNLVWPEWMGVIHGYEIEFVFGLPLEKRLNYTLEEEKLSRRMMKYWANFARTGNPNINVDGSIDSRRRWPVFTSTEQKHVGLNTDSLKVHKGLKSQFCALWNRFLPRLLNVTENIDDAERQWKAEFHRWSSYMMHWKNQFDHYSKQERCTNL

T1 sequence (P81908 whole entry): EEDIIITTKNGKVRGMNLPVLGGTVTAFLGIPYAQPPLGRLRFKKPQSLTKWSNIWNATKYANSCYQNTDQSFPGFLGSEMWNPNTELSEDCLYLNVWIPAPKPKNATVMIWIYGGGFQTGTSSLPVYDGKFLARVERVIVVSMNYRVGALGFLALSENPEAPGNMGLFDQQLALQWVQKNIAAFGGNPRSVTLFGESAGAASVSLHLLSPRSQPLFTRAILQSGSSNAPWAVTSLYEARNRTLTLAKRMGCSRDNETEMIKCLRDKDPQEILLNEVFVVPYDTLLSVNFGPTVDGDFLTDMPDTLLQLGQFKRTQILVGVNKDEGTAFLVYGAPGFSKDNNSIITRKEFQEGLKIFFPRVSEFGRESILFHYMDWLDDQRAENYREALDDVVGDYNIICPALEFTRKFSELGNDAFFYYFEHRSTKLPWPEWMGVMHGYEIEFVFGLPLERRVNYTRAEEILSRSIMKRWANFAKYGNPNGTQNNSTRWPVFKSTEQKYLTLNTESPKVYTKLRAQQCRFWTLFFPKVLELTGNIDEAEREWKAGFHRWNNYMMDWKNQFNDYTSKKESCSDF

Q: What does the source list for `Fc1ccc(CNc2ccc3ccc4sccc4c3c2)cc1` [Compound 9, N-(4-fluorobenzyl)naphtho [2,1-b]thiophen-8-amine]?
A: effect on TNFα production [1]: did not have any effect; effect on cell viability (antiproliferative activity) (THP-1 cell line): most potent

Q: Which “effect on TNFα production” value [1] does the source give for `COc1ccc(CNc2ccc3ccc4sccc4c3c2)cc1` [Compound 13, N-(4-methoxybenzyl)naphtho [2,1-b]thiophen-8-amine] here?
A: The value was “did not have any effect”.

Q: And the “effect on cell viability (antiproliferative activity)” value (THP-1 cell line)?
A: The value was “most potent”.

Q: Which IC50 ([2]; equine serum BChE, Ellman's method) does the source give for `c1csc(CNc2ccc3ccc4sccc4c3c2)c1` [Compound 15, N-(thiophen-2-ylmethyl)naphtho [2,1-b]thiophen-8-amine] here?
A: Its IC50 is about 32.3 µM.

Q: What does the source list for `C=CCn1nnc2ccc3sccc3c21` [allyl-thienobenzotriazole IV]?
A: potency as inhibitor of eqBChE compared to the standard galantamine [3]: twice as potent; TNFα production in PBMCs in response to the LPS stimulus [4]: strongly inhibited

Q: Which “acid resistance (1H NMR, cis configuration retained)” value [5] does the source give for `C(=C/c1cccs1)/c1ccc(NCc2cccs2)cc1` [cis-8, (Z)-4-(2-(thiophen-2-yl)vinyl)-N-(thiophen-2-ylmethyl)aniline] here?
A: Its value is “strong acid resistance”.

Q: And the IC50 ([6]; electric eel AChE, Ellman's method)?
A: The IC50 was 133 µM.

Q: Which “effect on TNFα production” value [1] does the source give for `Fc1ccc(CNc2ccc(/C=C/c3cccs3)cc2)cc1` [trans-2, (E)-N-(4-fluorobenzyl)-4-(2-(thiophen-2-yl)vinyl)aniline] here?
A: Its value is “did not have any effect”.

Q: Which “inhibition values, BChE” value ([2]; tested at final concentrations 20–250 μM) does the source give for `C(=C\c1cccs1)/c1ccc(NCc2cccs2)cc1` [trans-8, (E)-4-(2-(thiophen-2-yl)vinyl)-N-(thiophen-2-ylmethyl)aniline] here?
A: Its value is “smaller than 50%”.

Q: And the “inhibition values, AChE” value [6]?
A: The value was “smaller than 50%”.
